{"source": "paper PMC2362731", "about": "“Phase I study of Carzelesin (U-80,244) given (4-weekly) by intravenous bolus schedule” (British Journal of Cancer, 1999)", "system": "patients with advanced solid tumours", "assay": "Phase I toxicity of Carzelesin, 4-weekly 10 min IV infusion (NCI-CTC grading)", "type": "in vivo, human", "method": "Carzelesin is a cyclopropylpyrroloindole analogue which acts as a DNA-sequence-specific alkylating agent. In this phase I study, Carzelesin was given as a 4-weekly 10 min IV infusion to 51 patients with advanced solid tumours. Patients received a median of two courses (range 1–5) at one of nine dose levels: 24, 48, 96, 130, 150, 170, 210, 250 and 300 μg m^−2. According to NCI-CTC criteria, non-haematological toxicities (grade 1/2) included fever, nausea and vomiting, mucositis and anorexia, none of which was clearly dose related. The dose-limiting toxicity was haematological and consisted mainly of neutropenia and to a lesser extent thrombocytopenia. From the dose level 150 μg m^−2, the haematological toxicity (particularly thrombocytopenia) was delayed in onset, prolonged and cumulative in some patients. In several courses, double WBC nadirs occurred. The maximum tolerated dose for a single course was 300 μg m^−2. From the dose level 170 μg m^−2, the intended dose intensity could not be delivered to most patients receiving > 2 courses owing to cumulative haematological toxicity. The dose level with the best dose intensity for multiple courses was 150 μg m^−2. The pharmacokinetics of Carzelesin and its metabolites (U-76,073; U-76,074) have been established in 31 patients during the first course of treatment using a HPLC method. […] The concentration of U-76,074 (active metabolite) extended above the lower limit of quantitation (1 ng ml^−1) for short periods of time and only at the higher dose levels. There was no relationship between neutropenia and the AUC of the prodrug Carzelesin, but the presence of detectable plasma levels of the active metabolite U-76,074 was usually associated with a substantial decrease in ANC values. © 1999 Cancer Research Campaign\nCarzelesin (U-80,244, Figure 1A) is a cyclopropylpyrroloindole (CPI) prodrug analogue of CC-1065. […] CPI drugs are a class of compounds with unique DNA interactive properties. These agents fit into the minor groove region of DNA, and the CPI function in the molecule mediates a covalent binding to the N3 position of adenine in A-T rich regions, thus forming DNA adducts in a sequence selective fashion (Hurley et al, 1984; Reynolds et al, 1985). Three new CPIs have now been developed. […] Bizelesin differs from the classical CPI drugs in that it contains two chloromethyl functions, which are both converted (via intramolecular rearrangements) to the CPI alkyl- ating species that interact with DNA. Consequently, this agent is capable of forming DNA interstrand cross-links (Lee et al, 1991). […] Therefore, efforts were directed to modu- late the alkylation rate by the preparation of CPI prodrugs that would require chemical or enzymatic conversion. The activation of Carzelesin is a two-step reaction with hydrolysis of the phenyl- urethane substituent to form the intermediate compound U-76,073, followed by ring closure to form the active product U-76,074 (Figure 1B). […] This higher efficacy may be related to the pharmacologic features of the compound. […] Phase I study of Carzelesin (U-80,244) given (4-weekly) by intravenous bolus schedule A Awada1, CJA Punt2, MJ Piccart1, O Van Tellingen3, L Van Manen2, J Kerger1, Y Groot4, J Wanders4, J Verweij5 and DJTh Wagener2 1Institut Jules Bordet, Bd de Waterloo 125, 1000 Brussels, Belgium; 2University Hospital, Geert Grooteplein 8, Box 9101, 6500 HB Nijmegen, The Netherlands; 3The Netherlands Cancer Institute (Antoni van Leeuwenhoek Huis), Plesmanlaan 121, 1066 CX Amsterdam, The Netherlands; 4European Organization for Research and Treatment of Cancer - New Drug Development Office, PO Box 7057, Amsterdam, The Netherlands; 5Rotterdam Cancer Institute, Groene Hilledijk 301, 3075 EA Rotterdam, The Netherlands; on behalf of the EORTC Early Clinical Studies Group and EORTC NDDO Summary Carzelesin is a cyclopropylpyrroloindole analogue which acts as a DNA-sequence-specific alkylating agent. […]", "key": {"[1]": {"conditions": "Table 4, dose levels 150-300 μg m-2 combined, 31 evaluable patients"}}, "data": [{"smiles": "CCN(CC)c1ccc2cc(C(=O)Nc3ccc4[nH]c(C(=O)N5C[C@@H](CCl)c6c5cc(OC(=O)Nc5ccccc5)c5[nH]cc(C)c65)cc4c3)oc2c1", "note": "[Carzelesin]", "values": [{"measurement": "Thrombocytopenia grade 3/4, patients following the first course", "setting": "Table 3, dose level 210 μg m-2, one patient had pre-existing grade 1 thrombocytopenia", "value": "0/1"}, {"measurement": "Neutropenia grade 3/4, No. of courses", "setting": "Table 3, dose level 250 μg m-2", "value": "1/2"}, {"measurement": "Neutropenia grade 3/4, No. of patients (worst grade per patient)", "setting": "Table 3, dose level 250 μg m-2", "value": "0/2"}, {"measurement": "Neutropenia grade 3/4, patients following the first course", "setting": "Table 3, dose level 250 μg m-2", "value": "1/1"}, {"measurement": "No. of toxic patients following the first course", "setting": "Table 3, dose level 250 μg m-2", "value": 2}, {"measurement": "Thrombocytopenia grade 3/4, No. of courses", "setting": "Table 3, dose level 250 μg m-2", "value": "1/1"}, {"measurement": "Thrombocytopenia grade 3/4, No. of patients (worst grade per patient)", "setting": "Table 3, dose level 250 μg m-2", "value": "1/1"}, {"measurement": "Thrombocytopenia grade 3/4, patients following the first course", "setting": "Table 3, dose level 250 μg m-2", "value": "1/0"}, {"measurement": "No. of toxic patients/courses (grade 3/4 neutropenia and/or thrombocytopenia)", "setting": "Table 3, dose level 250 μg m-2, 5/7 evaluable patients/courses", "value": "2/3"}, {"measurement": "Neutropenia grade 3/4, No. of courses", "setting": "Table 3, dose level 300 μg m-2", "value": "1/2"}, {"measurement": "Neutropenia grade 3/4, No. of patients (worst grade per patient)", "setting": "Table 3, dose level 300 μg m-2", "value": "1/2"}, {"measurement": "Neutropenia grade 3/4, patients following the first course", "setting": "Table 3, dose level 300 μg m-2", "value": "1/2"}, {"measurement": "No. of toxic patients following the first course", "setting": "Table 3, dose level 300 μg m-2", "value": 3}, {"measurement": "Thrombocytopenia grade 3/4, No. of courses", "setting": "Table 3, dose level 300 μg m-2", "value": "1/1"}, {"measurement": "Thrombocytopenia grade 3/4, No. of patients (worst grade per patient)", "setting": "Table 3, dose level 300 μg m-2", "value": "1/1"}, {"measurement": "Thrombocytopenia grade 3/4, patients following the first course", "setting": "Table 3, dose level 300 μg m-2", "value": "1/1"}, {"measurement": "No. of toxic patients/courses (grade 3/4 neutropenia and/or thrombocytopenia)", "setting": "Table 3, dose level 300 μg m-2, 4/4 evaluable patients/courses", "value": "3/3"}, {"measurement": "Anorexia, patients with worst CTC-grade 1", "setting": "[1]", "value": 5}, {"measurement": "Anorexia, patients with worst CTC-grade 2", "setting": "[1]", "value": 5}, {"measurement": "Anorexia, patients with worst CTC-grade 3", "setting": "[1]", "value": 0}, {"measurement": "Anorexia, patients with worst CTC-grade 4", "setting": "[1]", "value": 0}, {"measurement": "Bilirubin toxicity, patients with worst CTC-grade 2", "setting": "[1]", "value": 6}, {"measurement": "Bilirubin toxicity, patients with worst CTC-grade 3", "setting": "[1]", "value": 1}, {"measurement": "Bilirubin toxicity, patients with worst CTC-grade 4", "setting": "[1]", "value": 0}, {"measurement": "Creatinine toxicity, patients with worst CTC-grade 1", "setting": "[1]", "value": 6}, {"measurement": "Creatinine toxicity, patients with worst CTC-grade 2", "setting": "[1]", "value": 1}, {"measurement": "Creatinine toxicity, patients with worst CTC-grade 3", "setting": "[1]", "value": 0}, {"measurement": "Creatinine toxicity, patients with worst CTC-grade 4", "setting": "[1]", "value": 0}, {"measurement": "Diarrhoea, patients with worst CTC-grade 1", "setting": "[1]", "value": 5}, {"measurement": "Diarrhoea, patients with worst CTC-grade 2", "setting": "[1]", "value": 1}, {"measurement": "Diarrhoea, patients with worst CTC-grade 3", "setting": "[1]", "value": 0}, {"measurement": "Fatigue/asthenia, patients with worst CTC-grade 1", "setting": "[1]", "value": 3}, {"measurement": "Fatigue/asthenia, patients with worst CTC-grade 2", "setting": "[1]", "value": 9}, {"measurement": "Fatigue/asthenia, patients with worst CTC-grade 3", "setting": "[1]", "value": 3}, {"measurement": "Fatigue/asthenia, patients with worst CTC-grade 4", "setting": "[1]", "value": 0}, {"measurement": "Fever, patients with worst CTC-grade 1", "setting": "[1]", "value": 4}, {"measurement": "Fever, patients with worst CTC-grade 2", "setting": "[1]", "value": 5}, {"measurement": "Fever, patients with worst CTC-grade 3", "setting": "[1]", "value": 2}, {"measurement": "Fever, patients with worst CTC-grade 4", "setting": "[1]", "value": 0}, {"measurement": "Mucositis, patients with worst CTC-grade 1", "setting": "[1]", "value": 7}, {"measurement": "Mucositis, patients with worst CTC-grade 2", "setting": "[1]", "value": 1}, {"measurement": "Mucositis, patients with worst CTC-grade 3", "setting": "[1]", "value": 0}, {"measurement": "Mucositis, patients with worst CTC-grade 4", "setting": "[1]", "value": 0}, {"measurement": "Nausea, patients with worst CTC-grade 1", "setting": "[1]", "value": 11}, {"measurement": "Nausea, patients with worst CTC-grade 2", "setting": "[1]", "value": 6}, {"measurement": "Nausea, patients with worst CTC-grade 3", "setting": "[1]", "value": 2}, {"measurement": "Nausea, patients with worst CTC-grade 4", "setting": "[1]", "value": 0}, {"measurement": "Pain at the infusion site, patients with worst CTC-grade 1", "setting": "[1]", "value": 9}, {"measurement": "Pain at the infusion site, patients with worst CTC-grade 2", "setting": "[1]", "value": 2}, {"measurement": "Pain at the infusion site, patients with worst CTC-grade 3", "setting": "[1]", "value": 0}, {"measurement": "Pain at the infusion site, patients with worst CTC-grade 4", "setting": "[1]", "value": 0}, {"measurement": "Proteinuria, patients with worst CTC-grade 1", "setting": "[1]", "value": 3}, {"measurement": "Proteinuria, patients with worst CTC-grade 2", "setting": "[1]", "value": 0}, {"measurement": "Proteinuria, patients with worst CTC-grade 3", "setting": "[1]", "value": 0}, {"measurement": "Proteinuria, patients with worst CTC-grade 4", "setting": "[1]", "value": 0}, {"measurement": "Vomiting, patients with worst CTC-grade 1", "setting": "[1]", "value": 7}, {"measurement": "Vomiting, patients with worst CTC-grade 2", "setting": "[1]", "value": 5}, {"measurement": "Vomiting, patients with worst CTC-grade 3", "setting": "[1]", "value": 2}, {"measurement": "Vomiting, patients with worst CTC-grade 4", "setting": "[1]", "value": 0}, {"measurement": "Diarrhoea, patients with worst CTC-grade 4", "setting": "Table 4, dose levels 150-300 μg m-2 combined, 31 evaluable patients, relation to Carzelesin was unlikely", "value": 1}, {"measurement": "patients who received red cell transfusions while on study", "setting": "different dose levels from 130", "value": "Nine patients"}, {"measurement": "patients with grade 4 myelotoxicity", "setting": "dose level 150, six evaluable patients", "value": "two patients out of six"}, {"measurement": "episode of febrile neutropenia", "setting": "dose level 250", "value": "One patient"}, {"measurement": "patients with grade 4 neutropenia", "setting": "dose level 300", "value": "two out of four"}, {"measurement": "patients with grade 4 myelotoxicity", "setting": "dose levels 96 and 130", "value": "two patients"}, {"measurement": "grade 3 or 4 haematological toxicities", "setting": "first two dose levels (24, 48)", "value": "no grade 3 or 4 haematological toxici- ties were observed"}, {"measurement": "second drop in leucocyte and neutrophil count after apparent recovery, evaluable courses", "setting": "from the dose level of 130", "value": 26, "unit": "%"}, {"measurement": "second drop in leucocyte and neutrophil count after apparent recovery, evaluable patients", "setting": "from the dose level of 130", "value": 33, "unit": "%"}, {"measurement": "non-haematological toxicities, overall", "setting": "grade 1-2, none clearly dose related", "value": "infrequent and mild"}, {"measurement": "flush reaction, patients", "setting": "in vivo", "value": "five patients"}, {"measurement": "haemorrhagic episodes during treatment", "setting": "in vivo", "value": "No haemorrhagic episodes"}, {"measurement": "dose-limiting toxicity", "setting": "mainly neutropenia, to a lesser extent thrombocytopenia", "value": "haematological"}, {"measurement": "median days to complete recovery, neutrophils", "setting": "overall, median (range)", "value": "28 (20-35) days"}, {"measurement": "median days to complete recovery, platelets", "setting": "overall, median (range)", "value": "33 (24-56) days"}, {"measurement": "median days to nadir, neutrophils", "setting": "overall, median (range)", "value": "12 (8-14) days"}, {"measurement": "median days to nadir, platelets", "setting": "overall, median (range)", "value": "20 (15-26) days"}]}]}
